Measured values reported in PubChem BioAssay (NCI).
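48-hour exposure; five concentrations; linearly interpolated endpoints. GI50 marks 50% less growth. TGI: concentration producing complete growth inhibition.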

What was measured:
Assay in all cases: NCI-60 cell line screen, 48 h
HOP-92 NSCLC = test system: HOP-92 NSCLC
EKVX NSCLC = test system: EKVX NSCLC
HCT-116 colon = test system: HCT-116 colon
COLO 205 colon = test system: COLO 205 colon
UACC-62 melanoma = test system: UACC-62 melanoma
HOP-62 NSCLC = test system: HOP-62 NSCLC
SK-MEL-28 melanoma = test system: SK-MEL-28 melanoma
U251 CNS = test system: U251 CNS
ACHN renal = test system: ACHN renal
KM12 colon = test system: KM12 colon
NCI-H522 lung = test system: NCI-H522 lung
UACC-257 melanoma = test system: UACC-257 melanoma
SK-MEL-2 melanoma = test system: SK-MEL-2 melanoma
MOLT-4 leukemia = test system: MOLT-4 leukemia
IGROV1 ovarian = test system: IGROV1 ovarian
MDA-MB-435 = test system: MDA-MB-435
OVCAR-3 ovarian = test system: OVCAR-3 ovarian
BT-549 breast = test system: BT-549 breast
HL-60(TB) leukemia = test system: HL-60(TB) leukemia
HCT-15 colon = test system: HCT-15 colon
NCI-H23 lung = test system: NCI-H23 lung
CCRF-CEM leukemia = test system: CCRF-CEM leukemia
SNB-19 CNS = test system: SNB-19 CNS
RXF 393 renal = test system: RXF 393 renal
HT29 colon = test system: HT29 colon
OVCAR-8 ovarian = test system: OVCAR-8 ovarian
SK-MEL-5 melanoma = test system: SK-MEL-5 melanoma
UO-31 renal = test system: UO-31 renal
SK-OV-3 ovarian = test system: SK-OV-3 ovarian
SF-539 CNS = test system: SF-539 CNS
TK-10 renal = test system: TK-10 renal
SF-268 CNS = test system: SF-268 CNS
A549 NSCLC = test system: A549 NSCLC
LOX IMVI melanoma = test system: LOX IMVI melanoma
NCI-H460 lung = test system: NCI-H460 lung
MALME-3M melanoma = test system: MALME-3M melanoma
786-0 renal = test system: 786-0 renal
SNB-75 CNS = test system: SNB-75 CNS
SN12C renal = test system: SN12C renal
MCF7 breast = test system: MCF7 breast
MDA-MB-231 breast = test system: MDA-MB-231 breast
K-562 leukemia = test system: K-562 leukemia
HS 578T breast = test system: HS 578T breast
PC-3 prostate = test system: PC-3 prostate
RPMI-8226 leukemia = test system: RPMI-8226 leukemia
SF-295 CNS = test system: SF-295 CNS
OVCAR-4 ovarian = test system: OVCAR-4 ovarian
OVCAR-5 ovarian = test system: OVCAR-5 ovarian
DU-145 prostate = test system: DU-145 prostate
CAKI-1 renal = test system: CAKI-1 renal
SW-620 colon = test system: SW-620 colon
NCI/ADR-RES ovarian = test system: NCI/ADR-RES ovarian
NCI-H226 lung = test system: NCI-H226 lung
T-47D breast = test system: T-47D breast
M14 melanoma = test system: M14 melanoma
SR leukemia = test system: SR leukemia
A498 renal = test system: A498 renal

COC(=O)Cc1ccc(Oc2cnc3cc(F)c(F)cc3n2)cc1
GI50 (HOP-92 NSCLC): > 100 µM
TGI (HOP-92 NSCLC): > 100 µM
GI50 (EKVX NSCLC): 94.3 µM
TGI (EKVX NSCLC): > 100 µM
GI50 (HCT-116 colon): 26 µM
TGI (HCT-116 colon): > 100 µM
GI50 (COLO 205 colon): > 100 µM
TGI (COLO 205 colon): > 100 µM
GI50 (UACC-62 melanoma): > 100 µM
TGI (UACC-62 melanoma): > 100 µM
GI50 (HOP-62 NSCLC): > 100 µM
TGI (HOP-62 NSCLC): > 100 µM
GI50 (SK-MEL-28 melanoma): > 100 µM
TGI (SK-MEL-28 melanoma): > 100 µM
GI50 (U251 CNS): > 100 µM
TGI (U251 CNS): > 100 µM
GI50 (ACHN renal): > 100 µM
TGI (ACHN renal): > 100 µM
GI50 (KM12 colon): > 100 µM
TGI (KM12 colon): > 100 µM
GI50 (NCI-H522 lung): > 100 µM
TGI (NCI-H522 lung): > 100 µM
GI50 (UACC-257 melanoma): > 100 µM
TGI (UACC-257 melanoma): > 100 µM
GI50 (SK-MEL-2 melanoma): > 100 µM
TGI (SK-MEL-2 melanoma): > 100 µM
GI50 (MOLT-4 leukemia): 12.7 µM
TGI (MOLT-4 leukemia): 32.9 µM
GI50 (IGROV1 ovarian): > 100 µM
TGI (IGROV1 ovarian): > 100 µM
GI50 (MDA-MB-435): > 100 µM
TGI (MDA-MB-435): > 100 µM
GI50 (OVCAR-3 ovarian): 93.3 µM
TGI (OVCAR-3 ovarian): > 100 µM
GI50 (BT-549 breast): > 100 µM
TGI (BT-549 breast): > 100 µM
GI50 (HL-60(TB) leukemia): 42.5 µM
TGI (HL-60(TB) leukemia): > 100 µM
GI50 (HCT-15 colon): > 100 µM
TGI (HCT-15 colon): > 100 µM
GI50 (NCI-H23 lung): 68.4 µM
TGI (NCI-H23 lung): > 100 µM
GI50 (CCRF-CEM leukemia): 44.2 µM
TGI (CCRF-CEM leukemia): > 100 µM
GI50 (SNB-19 CNS): > 100 µM
TGI (SNB-19 CNS): > 100 µM
GI50 (RXF 393 renal): > 100 µM
TGI (RXF 393 renal): > 100 µM
GI50 (HT29 colon): 58.1 µM
TGI (HT29 colon): > 100 µM
GI50 (OVCAR-8 ovarian): > 100 µM
TGI (OVCAR-8 ovarian): > 100 µM
GI50 (SK-MEL-5 melanoma): 32 µM
TGI (SK-MEL-5 melanoma): > 100 µM
GI50 (UO-31 renal): > 100 µM
TGI (UO-31 renal): > 100 µM
GI50 (SK-OV-3 ovarian): > 100 µM
TGI (SK-OV-3 ovarian): > 100 µM
GI50 (SF-539 CNS): > 100 µM
TGI (SF-539 CNS): > 100 µM
GI50 (TK-10 renal): > 100 µM
TGI (TK-10 renal): > 100 µM
GI50 (SF-268 CNS): > 100 µM
TGI (SF-268 CNS): > 100 µM
GI50 (A549 NSCLC): > 100 µM
TGI (A549 NSCLC): > 100 µM
GI50 (LOX IMVI melanoma): > 100 µM
TGI (LOX IMVI melanoma): > 100 µM
GI50 (NCI-H460 lung): > 100 µM
TGI (NCI-H460 lung): > 100 µM
GI50 (MALME-3M melanoma): > 100 µM
TGI (MALME-3M melanoma): > 100 µM
GI50 (786-0 renal): > 100 µM
TGI (786-0 renal): > 100 µM
GI50 (SNB-75 CNS): > 100 µM
TGI (SNB-75 CNS): > 100 µM
GI50 (SN12C renal): > 100 µM
TGI (SN12C renal): > 100 µM
GI50 (MCF7 breast): > 100 µM
TGI (MCF7 breast): > 100 µM
GI50 (MDA-MB-231 breast): > 100 µM
TGI (MDA-MB-231 breast): > 100 µM
GI50 (K-562 leukemia): 31.1 µM
TGI (K-562 leukemia): 94.8 µM
GI50 (HS 578T breast): > 100 µM
TGI (HS 578T breast): > 100 µM
GI50 (PC-3 prostate): 63.7 µM
TGI (PC-3 prostate): > 100 µM
GI50 (RPMI-8226 leukemia): 23.2 µM
TGI (RPMI-8226 leukemia): 81 µM
GI50 (SF-295 CNS): > 100 µM
TGI (SF-295 CNS): > 100 µM
GI50 (OVCAR-4 ovarian): 58.3 µM
TGI (OVCAR-4 ovarian): > 100 µM
GI50 (OVCAR-5 ovarian): > 100 µM
TGI (OVCAR-5 ovarian): > 100 µM
GI50 (DU-145 prostate): > 100 µM
TGI (DU-145 prostate): > 100 µM
GI50 (CAKI-1 renal): > 100 µM
TGI (CAKI-1 renal): > 100 µM
GI50 (SW-620 colon): > 100 µM
TGI (SW-620 colon): > 100 µM
GI50 (NCI/ADR-RES ovarian): 23.8 µM
TGI (NCI/ADR-RES ovarian): 81.1 µM
GI50 (NCI-H226 lung): 52.9 µM
TGI (NCI-H226 lung): > 100 µM

Nc1nc(Cl)c(N=Nc2ccc(Cl)cc2)c(NCC2(CO)CCC2)n1
GI50 (HOP-92 NSCLC): 14.9 µM
TGI (HOP-92 NSCLC): 64.9 µM
GI50 (EKVX NSCLC): 21.7 µM
GI50 (HCT-116 colon): 36.8 µM
GI50 (HOP-62 NSCLC): 42 µM
TGI (HOP-62 NSCLC): 82.6 µM
GI50 (U251 CNS): 41.1 µM
GI50 (ACHN renal): 41 µM
GI50 (SK-MEL-2 melanoma): 89.3 µM
GI50 (BT-549 breast): 49.8 µM
GI50 (NCI-H23 lung): 48 µM
GI50 (SNB-19 CNS): 33.7 µM
GI50 (RXF 393 renal): 36.5 µM
TGI (RXF 393 renal): 61.6 µM
GI50 (T-47D breast): 26.4 µM
GI50 (OVCAR-8 ovarian): 26.8 µM
TGI (OVCAR-8 ovarian): 88.8 µM
GI50 (SK-OV-3 ovarian): 12.6 µM
GI50 (M14 melanoma): 98.9 µM
GI50 (SF-539 CNS): 90.7 µM
GI50 (SF-268 CNS): 46.3 µM
GI50 (LOX IMVI melanoma): 41 µM
GI50 (786-0 renal): 10.2 µM
GI50 (SNB-75 CNS): 7.05 µM
TGI (SNB-75 CNS): 30.1 µM
GI50 (MCF7 breast): 25.3 µM
GI50 (MDA-MB-231 breast): 8.74 µM
TGI (MDA-MB-231 breast): 51.1 µM
GI50 (HS 578T breast): 32.9 µM
GI50 (SF-295 CNS): 49.4 µM
GI50 (CAKI-1 renal): 2.27 µM
GI50 (NCI/ADR-RES ovarian): 41.8 µM
GI50 (NCI-H226 lung): 77 µM

CN(CCNCc1cn(C)c2c1ccc1ccccc12)CCNCc1cn(C)c2c1ccc1ccccc12
TGI (HOP-92 NSCLC): 3.38 µM
TGI (HCT-116 colon): 2.33 µM
TGI (COLO 205 colon): 2.33 µM
TGI (SK-MEL-28 melanoma): 2.84 µM
TGI (U251 CNS): 2.11 µM
TGI (ACHN renal): 2.97 µM
TGI (KM12 colon): 2.32 µM
TGI (NCI-H522 lung): 2.86 µM
TGI (UACC-257 melanoma): 3.03 µM
TGI (MOLT-4 leukemia): 2.81 µM
TGI (IGROV1 ovarian): 3.24 µM
TGI (MDA-MB-435): 2.86 µM
TGI (HCT-15 colon): 2.5 µM
TGI (NCI-H23 lung): 2.67 µM
TGI (CCRF-CEM leukemia): 2.21 µM
TGI (SR leukemia): 2.88 µM
TGI (SNB-19 CNS): 2.3 µM
TGI (RXF 393 renal): 1.71 µM
TGI (HT29 colon): 2.77 µM
TGI (OVCAR-8 ovarian): 3.34 µM
TGI (A498 renal): 13.9 µM
TGI (M14 melanoma): 0.904 µM
TGI (SF-539 CNS): 3.16 µM
TGI (A549 NSCLC): 2.31 µM
TGI (NCI-H460 lung): > 100 µM
TGI (MALME-3M melanoma): 3.61 µM
TGI (786-0 renal): 1.83 µM
TGI (MDA-MB-231 breast): 2.99 µM
TGI (PC-3 prostate): 2.57 µM
TGI (RPMI-8226 leukemia): > 100 µM
TGI (OVCAR-4 ovarian): 2.64 µM
TGI (DU-145 prostate): 2.76 µM
TGI (SW-620 colon): 2.57 µM
TGI (NCI/ADR-RES ovarian): 2.54 µM
